According to the kinase profiling compilation of Christmann-Franck et al. (2016):

What was measured:
Assay in all cases: KINOMEscan competition binding
[1] = target: MAPK4 (human) (UniProt P31152); details: compound 10.0 µM
[2] = target: BMPR2 (human) (UniProt Q13873); details: compound 10.0 µM
[3] = target: CIT (human) (UniProt O14578); details: compound 10.0 µM
[4] = target: TXK (human) (UniProt P42681); details: compound 10.0 µM
[5] = target: FLT4 (human) (UniProt P35916); details: compound 10.0 µM
[6] = target: MAPKAPK2 (human) (UniProt P49137); details: compound 10.0 µM
[7] = target: TRPM6 (human) (UniProt Q9BX84); details: compound 10.0 µM
[8] = target: CLK3 (human) (UniProt P49761); details: compound 10.0 µM
[9] = target: SBK1 (human) (UniProt Q52WX2); details: compound 10.0 µM
[10] = target: MAP2K4 (human) (UniProt P45985); details: compound 10.0 µM
[11] = target: CDKL3 (human) (UniProt Q8IVW4); details: compound 10.0 µM
[12] = system: EIF2AK4 KD2 (human), Q9P2K8 [S808G]; details: compound 10.0 µM
[13] = target: CDK14 (human) (UniProt O94921); details: compound 10.0 µM
[14] = target: TAOK3 (human) (UniProt Q9H2K8); details: compound 10.0 µM
[15] = system: RET (human), P07949 [M918T]; details: compound 10.0 µM
[16] = target: RIOK2 (human) (UniProt Q9BVS4); details: compound 10.0 µM
[17] = target: NEK5 (human) (UniProt Q6P3R8); details: compound 10.0 µM
[18] = target: KDR (human) (UniProt P35968); details: compound 10.0 µM
[19] = target: PIM3 (human) (UniProt Q86V86); details: compound 10.0 µM
[20] = target: DYRK2 (human) (UniProt Q92630); details: compound 10.0 µM
[21] = target: CAMK1G (human) (UniProt Q96NX5); details: compound 10.0 µM
[22] = target: EPHA3 (human) (UniProt P29320); details: compound 10.0 µM
[23] = target: MELK (human) (UniProt Q14680); details: compound 10.0 µM
[24] = target: YSK4 (human) (UniProt Q56UN5); details: compound 10.0 µM
[25] = target: RIOK3 (human) (UniProt O14730); details: compound 10.0 µM
[26] = target: CHEK1 (human) (UniProt O14757); details: compound 10.0 µM
[27] = system: EGFR (human), P00533 [P753S; 747-752 del]; details: compound 10.0 µM
[28] = target: CLK2 (human) (UniProt P49760); details: compound 10.0 µM
[29] = target: LCK (human) (UniProt P06239); details: compound 10.0 µM
[30] = target: PIK3CB (human) (UniProt P42338); details: compound 10.0 µM
[31] = target: ANKK1 (human) (UniProt Q8NFD2); details: compound 10.0 µM
[32] = target: PKN3 (M.tuberculosis) (UniProt Q6P5Z2); details: compound 10.0 µM
Chain of PKN3 (M.tuberculosis) (Q6P5Z2 whole entry, looked up): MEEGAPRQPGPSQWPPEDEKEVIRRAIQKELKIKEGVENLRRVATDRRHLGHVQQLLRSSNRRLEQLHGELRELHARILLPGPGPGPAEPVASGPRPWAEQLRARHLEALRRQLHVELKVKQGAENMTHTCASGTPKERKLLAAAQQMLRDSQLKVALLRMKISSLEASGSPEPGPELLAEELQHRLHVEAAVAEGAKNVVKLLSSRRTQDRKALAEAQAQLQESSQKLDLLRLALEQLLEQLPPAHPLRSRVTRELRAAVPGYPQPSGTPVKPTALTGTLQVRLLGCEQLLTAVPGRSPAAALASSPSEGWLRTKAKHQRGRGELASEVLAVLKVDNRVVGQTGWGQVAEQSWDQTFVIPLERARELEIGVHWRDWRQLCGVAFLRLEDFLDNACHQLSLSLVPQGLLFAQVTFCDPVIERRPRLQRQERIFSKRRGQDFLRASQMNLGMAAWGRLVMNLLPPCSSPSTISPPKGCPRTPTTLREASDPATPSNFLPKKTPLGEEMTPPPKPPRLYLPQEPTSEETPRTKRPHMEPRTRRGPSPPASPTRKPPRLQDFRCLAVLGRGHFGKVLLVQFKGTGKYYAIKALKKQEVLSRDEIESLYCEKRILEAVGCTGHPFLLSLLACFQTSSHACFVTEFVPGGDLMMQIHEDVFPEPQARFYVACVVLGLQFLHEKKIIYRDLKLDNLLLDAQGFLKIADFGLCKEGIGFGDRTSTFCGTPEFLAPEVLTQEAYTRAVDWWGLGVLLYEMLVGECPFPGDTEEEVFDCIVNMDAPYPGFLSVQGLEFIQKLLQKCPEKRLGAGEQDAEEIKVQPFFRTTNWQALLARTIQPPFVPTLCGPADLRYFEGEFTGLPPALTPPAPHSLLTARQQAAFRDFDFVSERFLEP

[33] = target: TYK2 JH1 catalytic (human) (UniProt P29597); details: compound 10.0 µM
[34] = target: TAOK1 (human) (UniProt Q7L7X3); details: compound 10.0 µM
[35] = target: MAPK9 (human) (UniProt P45984); details: compound 10.0 µM
[36] = target: PLK4 (human) (UniProt O00444)
Chain of PLK4 (human) (O00444 whole entry, looked up): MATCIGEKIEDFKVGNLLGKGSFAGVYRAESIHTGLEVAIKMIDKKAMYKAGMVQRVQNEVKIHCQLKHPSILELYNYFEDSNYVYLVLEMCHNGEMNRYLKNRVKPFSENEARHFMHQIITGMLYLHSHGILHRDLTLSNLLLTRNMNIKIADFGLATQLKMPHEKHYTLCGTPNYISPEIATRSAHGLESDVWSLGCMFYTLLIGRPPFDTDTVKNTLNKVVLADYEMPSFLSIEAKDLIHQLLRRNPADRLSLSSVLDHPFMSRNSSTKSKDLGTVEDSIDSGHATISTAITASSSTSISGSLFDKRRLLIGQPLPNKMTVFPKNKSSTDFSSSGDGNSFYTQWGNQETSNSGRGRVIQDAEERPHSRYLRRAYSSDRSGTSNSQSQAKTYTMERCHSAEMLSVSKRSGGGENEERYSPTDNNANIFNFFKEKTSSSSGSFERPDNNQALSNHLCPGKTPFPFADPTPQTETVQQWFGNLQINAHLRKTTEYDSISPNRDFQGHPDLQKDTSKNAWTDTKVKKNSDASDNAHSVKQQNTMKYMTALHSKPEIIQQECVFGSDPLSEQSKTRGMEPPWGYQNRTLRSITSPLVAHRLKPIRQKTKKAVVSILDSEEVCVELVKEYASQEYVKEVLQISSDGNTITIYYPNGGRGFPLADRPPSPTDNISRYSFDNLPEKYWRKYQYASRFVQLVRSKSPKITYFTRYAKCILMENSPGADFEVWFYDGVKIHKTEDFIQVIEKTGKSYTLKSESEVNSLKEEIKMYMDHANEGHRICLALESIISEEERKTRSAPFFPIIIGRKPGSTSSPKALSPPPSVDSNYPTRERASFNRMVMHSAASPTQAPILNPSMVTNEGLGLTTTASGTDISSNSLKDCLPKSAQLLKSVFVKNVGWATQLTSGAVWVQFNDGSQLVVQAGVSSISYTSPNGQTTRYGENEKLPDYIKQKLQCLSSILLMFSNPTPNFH

[37] = target: LRRK2 (human) (UniProt Q5S007)
Chain of LRRK2 (human) (Q5S007 whole entry, looked up): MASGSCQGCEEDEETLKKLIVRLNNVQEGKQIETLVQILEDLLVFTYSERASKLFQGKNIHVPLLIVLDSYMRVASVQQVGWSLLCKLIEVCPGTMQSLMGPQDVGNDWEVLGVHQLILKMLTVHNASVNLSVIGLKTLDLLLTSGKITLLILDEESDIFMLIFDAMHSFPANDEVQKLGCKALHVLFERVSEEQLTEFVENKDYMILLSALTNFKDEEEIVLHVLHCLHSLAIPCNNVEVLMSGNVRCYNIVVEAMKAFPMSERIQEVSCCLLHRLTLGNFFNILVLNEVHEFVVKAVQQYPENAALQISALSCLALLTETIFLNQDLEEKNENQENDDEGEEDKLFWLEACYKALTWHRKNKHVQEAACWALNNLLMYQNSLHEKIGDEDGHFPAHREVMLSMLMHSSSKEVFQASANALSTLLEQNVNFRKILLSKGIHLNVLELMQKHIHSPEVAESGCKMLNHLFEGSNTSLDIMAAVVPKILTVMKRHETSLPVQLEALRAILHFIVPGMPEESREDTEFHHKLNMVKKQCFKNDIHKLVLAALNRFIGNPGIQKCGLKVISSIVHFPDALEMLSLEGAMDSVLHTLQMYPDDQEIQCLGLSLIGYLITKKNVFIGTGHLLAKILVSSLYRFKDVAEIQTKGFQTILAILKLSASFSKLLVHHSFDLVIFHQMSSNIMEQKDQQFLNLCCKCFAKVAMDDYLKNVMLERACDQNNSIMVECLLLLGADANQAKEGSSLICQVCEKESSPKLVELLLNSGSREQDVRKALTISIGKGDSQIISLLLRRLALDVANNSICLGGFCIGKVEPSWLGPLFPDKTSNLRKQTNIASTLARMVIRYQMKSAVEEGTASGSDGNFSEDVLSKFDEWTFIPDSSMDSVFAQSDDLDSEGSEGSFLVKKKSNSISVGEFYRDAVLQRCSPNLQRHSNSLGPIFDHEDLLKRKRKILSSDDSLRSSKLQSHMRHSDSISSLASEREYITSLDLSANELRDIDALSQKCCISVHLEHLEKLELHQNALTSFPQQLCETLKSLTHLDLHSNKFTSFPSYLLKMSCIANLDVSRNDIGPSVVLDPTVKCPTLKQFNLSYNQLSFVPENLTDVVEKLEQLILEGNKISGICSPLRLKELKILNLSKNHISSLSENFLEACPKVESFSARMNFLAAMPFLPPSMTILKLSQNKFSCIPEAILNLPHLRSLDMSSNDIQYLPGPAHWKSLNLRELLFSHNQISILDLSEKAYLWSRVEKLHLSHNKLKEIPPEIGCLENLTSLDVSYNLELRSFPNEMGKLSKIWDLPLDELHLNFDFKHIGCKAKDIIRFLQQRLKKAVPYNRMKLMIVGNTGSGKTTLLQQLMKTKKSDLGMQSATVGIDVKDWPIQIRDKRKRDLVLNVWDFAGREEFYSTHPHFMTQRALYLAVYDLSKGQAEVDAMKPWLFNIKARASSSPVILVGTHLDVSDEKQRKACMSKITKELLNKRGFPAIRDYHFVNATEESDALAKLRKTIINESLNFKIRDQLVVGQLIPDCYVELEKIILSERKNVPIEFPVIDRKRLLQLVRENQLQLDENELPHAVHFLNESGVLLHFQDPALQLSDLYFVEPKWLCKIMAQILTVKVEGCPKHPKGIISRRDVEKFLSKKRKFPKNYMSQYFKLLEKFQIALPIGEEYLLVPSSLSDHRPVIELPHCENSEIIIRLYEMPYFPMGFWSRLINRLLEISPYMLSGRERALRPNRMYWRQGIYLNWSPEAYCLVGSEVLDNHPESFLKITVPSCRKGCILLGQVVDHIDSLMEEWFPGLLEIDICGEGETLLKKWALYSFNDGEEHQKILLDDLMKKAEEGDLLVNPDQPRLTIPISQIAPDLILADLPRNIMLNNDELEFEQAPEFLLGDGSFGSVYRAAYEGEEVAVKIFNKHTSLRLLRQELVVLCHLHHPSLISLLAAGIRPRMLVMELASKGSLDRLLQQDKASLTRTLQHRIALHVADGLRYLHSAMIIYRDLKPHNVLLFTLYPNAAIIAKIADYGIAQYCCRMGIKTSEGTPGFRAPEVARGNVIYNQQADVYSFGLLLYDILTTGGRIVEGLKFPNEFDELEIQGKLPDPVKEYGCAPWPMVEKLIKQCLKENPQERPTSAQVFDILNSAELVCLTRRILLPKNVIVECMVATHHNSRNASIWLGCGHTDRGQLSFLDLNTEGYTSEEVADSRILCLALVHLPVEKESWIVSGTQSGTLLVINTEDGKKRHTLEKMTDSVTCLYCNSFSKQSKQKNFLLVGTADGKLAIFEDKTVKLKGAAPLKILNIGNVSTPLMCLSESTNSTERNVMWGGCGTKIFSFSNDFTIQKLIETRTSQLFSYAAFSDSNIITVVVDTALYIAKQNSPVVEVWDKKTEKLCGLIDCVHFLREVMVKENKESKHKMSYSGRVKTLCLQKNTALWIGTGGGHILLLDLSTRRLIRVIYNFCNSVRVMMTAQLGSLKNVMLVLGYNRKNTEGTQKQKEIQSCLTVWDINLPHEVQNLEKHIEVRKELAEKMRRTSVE

[38] = target: TGFBR1 (human) (UniProt P36897); details: compound 10.0 µM
Chain of TGFBR1 (human) (P36897 whole entry, looked up): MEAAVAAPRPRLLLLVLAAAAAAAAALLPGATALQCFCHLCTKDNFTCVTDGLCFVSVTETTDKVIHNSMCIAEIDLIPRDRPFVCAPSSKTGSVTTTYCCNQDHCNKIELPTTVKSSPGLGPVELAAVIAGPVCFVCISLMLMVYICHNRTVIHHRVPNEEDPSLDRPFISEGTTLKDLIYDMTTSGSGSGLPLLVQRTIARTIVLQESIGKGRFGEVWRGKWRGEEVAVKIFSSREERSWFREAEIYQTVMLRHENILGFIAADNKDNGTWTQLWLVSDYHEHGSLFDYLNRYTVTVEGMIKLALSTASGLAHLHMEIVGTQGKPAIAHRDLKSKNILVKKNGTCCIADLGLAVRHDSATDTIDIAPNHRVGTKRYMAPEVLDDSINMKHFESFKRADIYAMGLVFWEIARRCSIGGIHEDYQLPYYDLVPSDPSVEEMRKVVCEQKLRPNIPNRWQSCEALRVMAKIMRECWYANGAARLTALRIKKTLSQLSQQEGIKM

[39] = target: MAP3K5 (human) (UniProt Q99683); details: compound 10.0 µM
[40] = target: PRKACB (human) (UniProt P22694); details: compound 10.0 µM
[41] = target: DMPK (human) (UniProt Q09013); details: compound 10.0 µM

COc1cc(C(=O)N2CCC(N3CCN(C)CC3)CC2)ccc1Nc1ncc2c(n1)N(C)c1ccccc1C(=O)N2C
kinase still bound, per cent of control [1]: 100% | kinase still bound, per cent of control [2]: 100% | kinase still bound, per cent of control [3]: 99% | kinase still bound, per cent of control [4]: 91% | kinase still bound, per cent of control [5]: 100% | kinase still bound, per cent of control [6]: 100% | kinase still bound, per cent of control [7]: 100% | kinase still bound, per cent of control [8]: 95% | kinase still bound, per cent of control [9]: 100% | kinase still bound, per cent of control [10]: 100% | residual activity [11]: 83% | kinase still bound, per cent of control [12]: 95% | residual activity [13]: 81% | kinase still bound, per cent of control [14]: 24% | kinase still bound, per cent of control [15]: 100% | kinase still bound, per cent of control [16]: 100% | kinase still bound, per cent of control [17]: 100% | kinase still bound, per cent of control [18]: 84% | kinase still bound, per cent of control [19]: 88% | kinase still bound, per cent of control [20]: 76% | kinase still bound, per cent of control [21]: 74% | kinase still bound, per cent of control [22]: 100% | kinase still bound, per cent of control [23]: 100% | kinase still bound, per cent of control [24]: 99% | kinase still bound, per cent of control [25]: 85% | kinase still bound, per cent of control [26]: 100% | kinase still bound, per cent of control [27]: 84% | kinase still bound, per cent of control [28]: 72% | kinase still bound, per cent of control [29]: 100% | kinase still bound, per cent of control [30]: 96% | kinase still bound, per cent of control [31]: 100% | kinase still bound, per cent of control [32]: 100% | kinase still bound, per cent of control [33]: 52% | kinase still bound, per cent of control [34]: 28% | kinase still bound, per cent of control [35]: 94% | Kd [36]: 16 nM | kinase still bound, per cent of control ([36]; compound 10.0 µM): 0% | Kd [37]: 20 nM | kinase still bound, per cent of control ([37]; compound 10.0 µM): 0% | kinase still bound, per cent of control [38]: 100% | kinase still bound, per cent of control [39]: 100% | residual activity [40]: 100% | kinase still bound, per cent of control [41]: 100%
